The test system of series [1] is VSV pseudotype HIV-like viral particles. The experiment in a line: organism not typed. It counts as cell-based. The conditions noted are these: for IC50: read-out: HIV IC50.
Series [2] can be described thus: Metabolic stability in human liver microsomes. The conditions noted are these: for HLM t1/2 / HLM stability (in words): human liver microsomes; for HLM t1/2 / half-life at 3 µM: 3 μM prodrug, NADPH, 0-120 min; for microsomal CLint at 3 µM / half-life at 3 µM: human, microsomes; for microsomal CLint at 3 µM: pH 7.4; for half-life at 3 µM: pH 7.4, HLM t1/2, human liver microsomes. In general terms: Liver microsomes are vesicles of endoplasmic reticulum, rich in cytochrome P450 enzymes.

The nature of another series: in vitro. To be noted: human, microsomes, pH 7.4.
The test system of series [3] is VSV pseudotype HIV-like viral particles. On the set-up: method as in Pribut et al., 2021. The conditions noted are these: preliminary pseudoviral assay results; ref Pribut et al., 2021; cited from earlier work.
Series [4] in a line: Cytotoxicity assay (cell viability, CellTiter 96 or resazurin). The conditions noted are these: human, HEK293T cells.
A short description of series [5]: Solubility observations (aqueous, HSA formulations, growth media). The series is classed as physicochemical. The conditions noted are these: observational, relative to TXL.
For series [6] the following is noted: dogs, single TAF dose, cited from earlier work.
The conditions of series [7]: dogs, single TAF dose.

Results on 18 molecules are retold here after publication PMC9852841, “Expanding the toolbox of metabolically stable lipid prodrug strategies” (Frontiers in Pharmacology, 2023).

Where two headings read alike, the source gives them in different places. Some results are limits rather than exact numbers.

With `C[C@H](Cn1cnc2c(N)ncnc21)OCP(=O)(O)OCCOCCCCCCCCCCCCc1ccc(S(F)(F)(F)(F)F)cc1.N` [Compound 42, Ammonium [(1R)-2-(6-aminopurin-9-yl)-1-methyl-ethoxy]methyl-[2-[12-[4-(pentafluorosulfanyl)phenyl]dodecoxy]ethoxy]phosphinate], the concentration for half-maximal inhibition (IC50) in series [1] (HEK-293T, 48 h) turned out to be 0.0254 µM. For the same molecule, in series [2], the “HLM t1/2” value is over 120 min and the intrinsic metabolic clearance (microsomal CLint) at 3 µM is under 5.78 µL/min/mg.

Consider `C[C@H](Cn1cnc2c(N)ncnc21)OCP(=O)(O)OCCOCCCCCCCCCCCCCC#CC(F)(F)F.N` [Compound 32, Ammonium 2-((16,16,16-trifluorohexadec-14-yn-1-yl)oxy)ethyl (R)-(((1-(6-amino-9h-purin-9-yl)propan-2-yl)oxy)methyl)phosphonate], for which the IC50 in series [1] (HEK-293T, 48 h) came out at 0.016 µM. Further, in series [2], the “HLM t1/2” value is over 120 min and the microsomal CLint at 3 µM is under 5.78 µL/min/mg.

On to `CCCCCCCCCCCCCCCCOCCCOP(=O)(O)CO[C@H](C)Cn1cnc2c(N)ncnc21` [TXL, tenofovir Exalidex, reference compound], for which the intrinsic metabolic clearance (microsomal CLint) in the series “in vitro” was determined as 16.7 µL/min/mg. Besides, the 50% inhibitory concentration (IC50) in series [1] (HEK-293T, 48 h) stood at 0.018 µM. Further, in series [2], the “HLM t1/2” value worked out at 41.6 min and the half-life at 3 µM was determined as 42 min.

As to `CCCCCCCCCCCCCCCCCCOCCOP(=O)(O)CO[C@H](C)Cn1cnc2c(N)ncnc21.N` [Compound 21, Ammonium 2-octadecoxyethoxy-[[(1R)-2-(6-aminopurin-9-yl)-1-methyl-ethoxy]methyl]phosphinate], the concentration for half-maximal inhibition (IC50) in series [1] (HEK-293T, 48 h) amounted to 0.003 µM. In addition, in series [2], the “HLM stability (in words)” value was “improved stability in HLM”, the “HLM t1/2” value was found to be 105 min and the microsomal CLint at 3 µM was 6.6 µL/min/mg.

Regarding `C[C@H](Cn1cnc2c(N)ncnc21)OCP(=O)(O)OCCOCCCCCCCCCCCCCCCC(F)(F)F.N` [Compound 36, Ammonium 2-((16,16,16-trifluorohexadecyl)oxy)ethyl (R)-(((1-(6-amino-9H-purin-9-yl)propan-2-yl)oxy)methyl)phosphonate], the IC50 in series [1] (HEK-293T, 48 h) came out at 0.0088 µM. Also, in series [2], the “HLM t1/2” value is on record as over 120 min and the microsomal CLint at 3 µM was under 5.78 µL/min/mg.

Consider `C[C@H](Cn1cnc2c(N)ncnc21)OCP(=O)(O)OCCOCCCCCCCCCCC#Cc1ccc(S(F)(F)(F)(F)F)cc1.N` [Compound 40, Ammonium [(1R)-2-(6-aminopurin-9-yl)-1-methyl-ethoxy]methyl-[2-[12-[4-(pentafluorosulfanyl)phenyl]dodec-11-ynoxy]ethoxy]phosphinate], for which the half-inhibitory concentration (IC50) in series [1] (HEK-293T, 48 h) is 0.0146 µM. Besides, in series [2], the “HLM t1/2” value is listed as over 120 min and the intrinsic clearance (microsomal CLint) at 3 µM is under 5.78 µL/min/mg.

Turning to `C[C@H](Cn1cnc2c(N)ncnc21)OCP(=O)(O)OCCOCCCCCCCCCCCCCCC#CC(F)(F)F.N` [Compound 33, Ammonium 2-((17,17,17-trifluoroheptadec-15-yn-1-yl)oxy)ethyl (R)-(((1-(6-amino-9h-purin-9-yl)propan-2-yl)oxy)methyl)phosphonate], the IC50 in series [1] (HEK-293T, 48 h) was found to be 0.0106 µM. In series [2], the “HLM t1/2” value was over 120 min and the microsomal CLint at 3 µM was under 5.78 µL/min/mg.

On to `CCCCCCCCCCCCCCCCCCCCOP(=O)(O)COC(C)Cn1cnc2c(N)ncnc21` (centres unmarked) [arachidyl TFV], for which the half-maximal inhibitory concentration (IC50) in series [3] was 0.127 µM.

For the molecule `COCCOCCOCCOCCOP(=O)(O)CO[C@H](C)Cn1cnc2c(N)ncnc21.N` [Compound 13, Ammonium [(1R)-2-(6-aminopurin-9-yl)-1-methyl-ethoxy]methyl-[2-[2-[2-(2-methoxyethoxy)ethoxy]ethoxy]ethoxy]phosphinate], the 50% cytotoxic concentration (CC50) at 48 h in series [4] is over 100 µM. For the same molecule, the IC50 in series [1] (HEK-293T, 48 h) was determined as 26.7 µM; in series [1] it was 23.4 µM. In series [5], the “aqueous solubility (in words)” value is “observationally increased aqueous solubility”.

On to `CCCCCCCCCCCCCCCCCOCCOP(=O)(O)CO[C@H](C)Cn1cnc2c(N)ncnc21.N` [Compound 18, Ammonium 2-heptadecoxyethoxy-[[(1R)-2-(6-aminopurin-9-yl)-1-methyl-ethoxy]methyl]phosphinate], for which, in series [1], the “boost in potency relative to analogue 20” value amounted to 17 fold. Moreover, in series [1] (HEK-293T, 48 h), the half-maximal inhibitory concentration (IC50) amounted to 0.003 µM. In series [2], the “HLM t1/2” value is reported as 35 min, the intrinsic metabolic clearance (microsomal CLint) at 3 µM is 19.8 µL/min/mg and the half-life at 3 µM came out at 34.9 min.

For the molecule `CCCCCCCCCCCCCCOCCCCCOP(=O)(O)CO[C@H](C)Cn1cnc2c(N)ncnc21.N` [Compound 20, Ammonium [(1R)-2-(6-aminopurin-9-yl)-1-methyl-ethoxy]methyl-(5-tetradecoxypentoxy)phosphinate], the IC50 in series [1] (HEK-293T, 48 h) was 0.052 µM. For the same molecule, in series [2], the “HLM t1/2” value was 31 min, the intrinsic metabolic clearance (microsomal CLint) at 3 µM is 22.5 µL/min/mg and the half-life at 3 µM is 30.9 min.

`COCCOCCOCCOCCOCCOCCOP(=O)(O)CO[C@H](C)Cn1cnc2c(N)ncnc21.N` [Compound 12, Ammonium 2,5,8,11,14,17-hexaoxanonadecan-19-yl (R)-(((1-(6-amino-9H-purin-9-yl)propan-2-yl)oxy)methyl)phosphonate]: the CC50 at 48 h in series [4] was over 100 µM. For the same molecule, the half-inhibitory concentration (IC50) amounted to 31.2 µM in series [1] (HEK-293T, 48 h) and 34.6 µM in series [1]. Moreover, the “aqueous solubility (in words)” value in series [5] is “observationally increased aqueous solubility”.

Regarding `C[C@H](Cn1cnc2c(N)ncnc21)OCP(=O)(O)OCCOCCCCCCCCCCCCCCCCC(F)(F)F.N` [Compound 37, Ammonium 2-((17,17,17-trifluoroheptadecyl)oxy)ethyl (R)-(((1-(6-amino-9h-purin-9-yl)propan-2-yl)oxy)methyl)phosphonate], the IC50 in series [1] (HEK-293T, 48 h) came to 0.0126 µM. In series [2], the “HLM t1/2” value was over 120 min and the intrinsic clearance (microsomal CLint) at 3 µM was under 5.78 µL/min/mg.

Regarding `CCCCOCCCCCOCCCCCOCCCOP(=O)(O)CO[C@H](C)Cn1cnc2c(N)ncnc21.N` [Compound 10, Ammonium [(1R)-2-(6-aminopurin-9-yl)-1-methyl-ethoxy]methyl-[3-[5-(5-butoxypentoxy)pentoxy]propoxy]phosphinate], in series [1], the “antiviral activity (in words)” value was “completely abrogated antiviral activity” and the “loss of antiviral activity” value is > 1,800 fold. Further, the 50% inhibitory concentration (IC50) in series [1] (HEK-293T, 48 h) is over 32 µM.

`COCCOCCOP(=O)(O)CO[C@H](C)Cn1cnc2c(N)ncnc21.N` [Compound 14, Ammonium [(1R)-2-(6-aminopurin-9-yl)-1-methyl-ethoxy]methyl-[2-(2-methoxyethoxy)ethoxy]phosphinate] returned a cytotoxic concentration (CC50) at 48 h in series [4] of over 100 µM. Also, the half-maximal inhibitory concentration (IC50) amounted to 21.4 µM in series [1] (HEK-293T, 48 h) and 19.4 µM in series [1]. For the same molecule, the “aqueous solubility (in words)” value in series [5] is reported as “observationally increased aqueous solubility”.

Consider `CC(C)OC(=O)[C@H](C)N[P@](=O)(CO[C@H](C)Cn1cnc2c(N)ncnc21)Oc1ccccc1` [TAF, tenofovir alafenamide], for which, in series [6] (ref Babusis et al., 2013), the “fraction of dose extracted by the liver” value is 65%. Further, in series [6] (ref Lee et al., 2005), the “fraction of a single dose converted to plasma TFV” value is 17%. In series [7], the “fraction of dose remaining available to access HIV-infected cells” value was 18% and the “fraction of dose sequestered for toxic side effects” value is on record as 82%.

Regarding `CCCCCCCCCCCCCCCOCCCCOP(=O)(O)CO[C@H](C)Cn1cnc2c(N)ncnc21.N` [Compound 19, Ammonium 4-pentadecoxybutoxy-[[(1R)-2-(6-aminopurin-9-yl)-1-methyl-ethoxy]methyl]phosphinate], the IC50 in series [1] (HEK-293T, 48 h) worked out at 0.03 µM. Further, in series [2], the “HLM t1/2” value is 48 min and the microsomal CLint at 3 µM was 14.4 µL/min/mg.

On to `CCCCCCCCOCCCCCOCCCCCOP(=O)(O)CO[C@H](C)Cn1cnc2c(N)ncnc21.N` [Compound 11, Ammonium 5-(5-octoxypentoxy)pentoxy-[[(1R)-2-(6-aminopurin-9-yl)-1-methyl-ethoxy]methyl]phosphinate], for which, in series [1], the “antiviral activity (in words)” value is “low μM range” and the “decay of antiviral activity with inclusion of the second oxygen atom” value is 78 fold. Further, the 50% inhibitory concentration (IC50) in series [1] (HEK-293T, 48 h) was 4.05 µM. In addition, in series [2], the “HLM stability (in words)” value was “less stable in HLM relative to TXL”, the “HLM t1/2” value was found to be 12 min, the intrinsic metabolic clearance (microsomal CLint) at 3 µM stood at 58.6 µL/min/mg and the half-life at 3 µM stood at 11.8 min.

A word on the IC50: it is the concentration that inhibits the measured activity by half. For orientation: microsomal CLint means the rate of metabolic loss divided by the concentration. The term half-life denotes how long it takes for the measured level to halve. As a reminder, the CC50 is the concentration that lowers cell viability or growth by half. A higher CC50 goes with lower toxicity to the cells.
